Measurements as given in patent US11773086B2, “Fungal modulators” (TRUSTEES OF BOSTON UNIVERSITY, priority 2020, dated 2023).

What was measured:
[1] = test system: C. auris efflux; test: Nile red accumulation assay (flow cytometry); type: cell-based, Candida auris
Experimental: FIGS. 5A, 5B and 6 illustrate that azoffluxin increases fluconazole (FLC) bioavailability by inhibiting Cdr1-mediated efflux in C. auris. FIG. 5A show C. auris strains grown to exponential phase and treated with 50 μM azoffluxin for 10 minutes when indicated, followed by addition of Nile red for 20 minutes. Cells were then imaged on the DIC and DsRed channels at equivalent exposure times. FIG. 5B: depicts a flow cytometer and histograms of the cells, showing the fluorescence on the PE channel per event for ˜20,000 events. […] FIG. 6 illustrates azoffluxin increases fluconazole (FLC) bioavailability by inhibiting Cdr1-mediated efflux in C. auris. Dose response assays were conducted with a C. auris parental strain, a strain with the efflux pump gene CDR1 deleted, and a strain with the efflux pump CDR4-1 deleted. FLC was titered in a two-fold dilution on the x-axis in the absence and presence of 50 μM azoffluxin. Growth was measured at 48 hours using OD600 and normalized to a no drug control well (see color bar).
Cellular efflux was determined by measuring Nile red accumulation, as previously described. Cells were subcultured from an OD600 0.1 in YPD for 4 hours until exponential phase was reached. […] To quantify fluorescence, a CytoFlex Flow Cytometer (Beckman Coulter) was used. […] Each sample was run using the CytExpert Software until ˜20,000 events had been recorded. […]

[2] = test system: C. auris; test: Dose-response of other antifungal compounds with or without 50 μM azoffluxin; type: cell-based, Candida auris; settings: 48 hours, YPD
Experimental: FIGS. 7A and 7B illustrates that azoffluxin potentiates intracellular acting compounds against C. auris, to a similar degree as deletion of CDR1. […] Cells were then imaged on the DIC and DsRed channels at equivalent exposure times as those in FIG. 5A. FIG. 7B depicts a dose response assays conducted with a C. auris parental strain in the absence and presence of 50 μM azoffluxin where indicated, as well as with a strain with the efflux pump gene CDR1 deleted. Indicated compounds were titered in a two-fold dilution on the x-axis. Growth was measured after 48 hours in YPD using OD600 and normalized to a no drug control well (see color bar).
Compound potency was assessed alone by dose response assays or in combination with another compound by dose-response matrixes in 96-well plates, or 384-well, flat-bottom, microtiter plates (Corning) as previously described. Plates were incubated at 30° C. for the indicated time period. Growth was quantified by measuring OD600 and corrected for medium background. All strains were assessed in biological duplicate experiments with technical duplicates. Growth was normalized to untreated controls and plotted as a heat map using Java TreeView 1.1.6r4. For dose-response matrixes fractional inhibitory concentration index at 90% growth inhibition (FICI90) was calculated as previously described. […]

[3] = target: T1, MRP1 (ABCC1) (Homo sapiens, UniProt P33527); test: Calcein AM accumulation in MRP1-overexpressing HEK293 cells (flow cytometry); type: cell-based, mammalian; settings: Calcein AM 2.5 μg/mL
T1 construct: expressed in transfected cells; host or cells: HEK293
Experimental: P-gp overexpressing HEK293 cell lines were used to determine if azoffluxin treatment leads to a greater accumulation of fluorescent substrates (MFI) as determined by flow cytometry.
MDR1 (ABCB1) and MRP1 (ABCC1) was assessed using the fluorescent dyes rhodamine 6G (0.5 μg/mL) and Calcein AM (2.5 μg/mL), for each pump respectively, and the known inhibitor controls tariquidar (60 nM) and MK571 (30 μM) for each pump respectively. Listed data is shown by FIG. 12E (R6G) and FIG. 12F (Cal).

[4] = test system: C. albicans; test: Checkerboard with fluconazole, clinical isolates CaCi-2 and CaCi-17; type: cell-based, Candida albicans
Experimental: FIG. 9A depicts checkerboard assays as described in FIG. 2B and performed with isolates of C. albicans. CaCi-2 and CaCi-17 represent early and late clinical isolates in which FLC resistance evolved over time. Growth was measured at 24 hours using OD600 and normalized to a no drug control well (see color bar). FIG. 9B depicts dose response assays conducted in YPD medium with a C. albicans parental strain, and strains with gain of function mutations in TAC1 as indicated. FLC was tittered in a two-fold dilution on the x-axis in the absence and presence of 50 μM azoffluxin. Growth was measured at 24 hours using OD600 and normalized to a no drug control well (see color bar). […] FIGS. 9D and 9E depict the intracellular concentrations of FLC and azoffluxin measured after treatment (combo treatment at 6.25 μM azoffluxin and 8 μg/mL FLC) for 1 hour by LC-MS. […] Significance was determined by an unpaired student t-test of each combination to the respective compound alone treatment, (*) indicates a p-value<0.05 and (**) indicates a p-value<0.01.
Compound potency was assessed alone by dose response assays or in combination with another compound by dose-response matrixes in 96-well plates, or 384-well, flat-bottom, microtiter plates (Corning) as previously described. […] Growth was quantified by measuring OD600 and corrected for medium background. […]

[5] = Tolerability; type: in vivo; settings: 10 mg/Kg BID for 4 days

T1 sequence (P33527 whole entry): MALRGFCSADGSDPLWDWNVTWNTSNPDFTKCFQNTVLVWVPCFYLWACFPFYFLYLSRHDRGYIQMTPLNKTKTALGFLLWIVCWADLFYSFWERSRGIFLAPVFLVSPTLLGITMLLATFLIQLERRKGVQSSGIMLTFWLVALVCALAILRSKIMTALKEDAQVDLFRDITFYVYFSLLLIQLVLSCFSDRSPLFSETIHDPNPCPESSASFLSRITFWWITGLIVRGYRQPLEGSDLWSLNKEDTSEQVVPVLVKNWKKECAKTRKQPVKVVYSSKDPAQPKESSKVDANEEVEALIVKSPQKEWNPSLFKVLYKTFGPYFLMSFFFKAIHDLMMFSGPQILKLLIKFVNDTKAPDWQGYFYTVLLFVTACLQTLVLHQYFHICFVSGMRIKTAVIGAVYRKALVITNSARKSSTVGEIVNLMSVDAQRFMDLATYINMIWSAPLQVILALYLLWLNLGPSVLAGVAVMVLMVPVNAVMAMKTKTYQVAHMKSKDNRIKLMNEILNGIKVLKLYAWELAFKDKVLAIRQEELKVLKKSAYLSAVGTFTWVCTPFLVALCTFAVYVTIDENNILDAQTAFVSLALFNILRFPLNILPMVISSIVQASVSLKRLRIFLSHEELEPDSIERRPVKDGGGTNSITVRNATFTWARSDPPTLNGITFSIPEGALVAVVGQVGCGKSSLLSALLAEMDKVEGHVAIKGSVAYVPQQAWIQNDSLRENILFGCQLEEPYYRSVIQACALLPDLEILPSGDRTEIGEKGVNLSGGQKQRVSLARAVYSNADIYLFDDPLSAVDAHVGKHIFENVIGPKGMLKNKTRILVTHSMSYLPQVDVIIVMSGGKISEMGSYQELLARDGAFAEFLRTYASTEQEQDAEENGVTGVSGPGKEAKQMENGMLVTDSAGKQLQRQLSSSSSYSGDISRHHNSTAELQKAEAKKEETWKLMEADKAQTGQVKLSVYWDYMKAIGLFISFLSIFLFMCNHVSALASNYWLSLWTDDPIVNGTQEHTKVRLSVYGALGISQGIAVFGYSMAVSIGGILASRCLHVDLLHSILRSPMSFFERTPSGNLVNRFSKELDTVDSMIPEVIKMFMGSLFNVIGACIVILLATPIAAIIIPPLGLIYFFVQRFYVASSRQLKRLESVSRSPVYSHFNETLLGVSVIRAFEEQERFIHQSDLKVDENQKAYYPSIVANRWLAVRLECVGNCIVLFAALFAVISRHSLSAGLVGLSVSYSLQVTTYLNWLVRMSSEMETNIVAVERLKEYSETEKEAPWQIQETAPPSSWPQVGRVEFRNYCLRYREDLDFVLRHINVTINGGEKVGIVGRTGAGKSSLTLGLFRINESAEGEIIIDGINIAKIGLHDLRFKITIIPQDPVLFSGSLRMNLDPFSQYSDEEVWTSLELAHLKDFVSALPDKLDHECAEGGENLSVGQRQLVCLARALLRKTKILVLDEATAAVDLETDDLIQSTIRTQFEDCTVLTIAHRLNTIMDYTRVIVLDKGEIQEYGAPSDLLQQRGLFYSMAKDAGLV

C=C(C)C[C@@H](O)COc1cc2c(cc1C1(c3cc4c(cc3OC[C@H](O)CC(=C)C)OCO4)C(=O)Nc3cc(F)ccc31)OCO2 [CMLD012336]
increase in relative cell-associated Nile red signal ([1]; 50 μM azoffluxin, C. auris Ci6684): 42 fold | increase in Nile red accumulation ([1]; Clade III isolates B11221 and B11222): 36-40 fold | sensitivity to caspofungin and amphotericin B [2]: no impact on sensitivity | sensitization to gepinacin, cerulenin, and cycloheximide [2]: to the same extent as CDR1 deletion | increase in calcein AM (Cal) [3]: 2.5 fold | potentiation of fluconazole ([4]; early clinical isolate CaCi-2): No potentiation | potentiation of fluconazole ([4]; late clinical isolate CaCi-17): did potentiate fluconazole | tolerability [5]: well tolerated
